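Grown in 96-well plates, cells were treated for 48 hours with each compound at five concentrations. Insufficient inhibition: endpoint recorded as highest concentration tested. Abbreviation: GI50, concentration required for 50% inhibition of growth.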 Active and inactive are the calls of the source. No stated cut-off is given here; in the data, active = GI50 up to about 1.1 µM and inactive = higher.
Tests used:
Assay in all cases: growth of human tumour cells (NCI), 48 h
786-0 = system: 786-0
A549 = system: A549
ACHN = system: ACHN
BT-549 = system: BT-549
CAKI-1 = system: CAKI-1
CCRF-CEM = system: CCRF-CEM
COLO 205 = system: COLO 205
DU-145 = system: DU-145
EKVX = system: EKVX
HCT-116 = system: HCT-116
HCT-15 = system: HCT-15
HL-60 = system: HL-60
HOP-62 = system: HOP-62
HOP-92 = system: HOP-92
HT-29 = system: HT-29
IGROV-1 = system: IGROV-1
K562 = system: K562
KM12 = system: KM12
LOX IMVI = system: LOX IMVI
M14 = system: M14
MCF7 = system: MCF7
MDA-MB-231 = system: MDA-MB-231
MDA-MB-435 = system: MDA-MB-435
MOLT-4 = system: MOLT-4
Malme-3M = system: Malme-3M
NCI-H226 = system: NCI-H226
NCI-H23 = system: NCI-H23
NCI-H460 = system: NCI-H460
NCI-H522 = system: NCI-H522
NCI/ADR-RES = system: NCI/ADR-RES
OVCAR-4 = system: OVCAR-4
OVCAR-5 = system: OVCAR-5
OVCAR-8 = system: OVCAR-8
PC-3 = system: PC-3
RPMI-8226 = system: RPMI-8226
SF-268 = system: SF-268
SF-295 = system: SF-295
SF-539 = system: SF-539
SK-MEL-28 = system: SK-MEL-28
SK-MEL-2 = system: SK-MEL-2
SK-MEL-5 = system: SK-MEL-5
SN12C = system: SN12C
SNB-19 = system: SNB-19
SNB-75 = system: SNB-75
SR = system: SR
SW-620 = system: SW-620
TK-10 = system: TK-10
U-251 = system: U-251
UACC-257 = system: UACC-257
A498 = system: A498
HCC 2998 = system: HCC 2998
MDA-N = system: MDA-N
OVCAR-3 = system: OVCAR-3
RXF 393 = system: RXF 393
SK-OV-3 = system: SK-OV-3
T47D = system: T47D
UACC-62 = system: UACC-62
UO-31 = system: UO-31

Measured: GI50

C=CCCC1(O)C(O)C(CO)O[C@H](O[C@@]2(CO)OC(CO)C(O)C2O)C1O (stereo partly specified)
> 100 µM: HCT-15
inactive: 786-0 > 100 µM | A549 > 100 µM | ACHN > 100 µM | BT-549 > 100 µM | CAKI-1 > 100 µM | CCRF-CEM > 100 µM | COLO 205 > 100 µM | DU-145 > 100 µM | EKVX > 100 µM | HCT-116 > 100 µM | HL-60 > 100 µM | HOP-62 > 100 µM | HOP-92 > 100 µM | HT-29 > 100 µM | IGROV-1 > 100 µM | K562 > 100 µM | KM12 > 100 µM | LOX IMVI > 100 µM | M14 > 100 µM | MCF7 > 100 µM | MDA-MB-231 > 100 µM | MDA-MB-435 > 100 µM | MOLT-4 > 100 µM | Malme-3M > 100 µM | NCI-H226 > 100 µM | NCI-H23 > 100 µM | NCI-H460 > 100 µM | NCI-H522 > 100 µM | NCI/ADR-RES > 100 µM | OVCAR-4 > 100 µM | OVCAR-5 > 100 µM | OVCAR-8 > 100 µM | PC-3 > 100 µM | RPMI-8226 > 100 µM | SF-268 > 100 µM | SF-295 > 100 µM | SF-539 > 100 µM | SK-MEL-28 > 100 µM | SK-MEL-2 > 10 µM | SK-MEL-5 > 100 µM | SN12C > 100 µM | SNB-19 > 100 µM | SNB-75 > 100 µM | SR > 100 µM | SW-620 > 100 µM | TK-10 > 100 µM | U-251 > 100 µM | UACC-257 > 100 µM

O=C1O/C(=C/c2ccccc2)C(c2ccccc2)=C1O
inactive: 786-0 46.7 µM | A498 23.1 µM | A549 33.3 µM | ACHN 74 µM | CAKI-1 47.3 µM | CCRF-CEM 29.7 µM | COLO 205 > 100 µM | DU-145 26 µM | EKVX 39.2 µM | HCC 2998 41.3 µM | HCT-116 36.9 µM | HL-60 20.1 µM | HOP-62 29.4 µM | HOP-92 61.5 µM | HT-29 > 100 µM | IGROV-1 40.6 µM | K562 41.1 µM | KM12 59.8 µM | LOX IMVI 36.6 µM | M14 59.8 µM | MCF7 34.4 µM | MDA-MB-231 38.1 µM | MDA-MB-435 29.8 µM | MDA-N 34 µM | MOLT-4 53.3 µM | Malme-3M 60.7 µM | NCI-H226 > 100 µM | NCI-H23 19 µM | NCI-H522 65 µM | NCI/ADR-RES 34.7 µM | OVCAR-3 19.8 µM | OVCAR-4 55.3 µM | OVCAR-5 > 100 µM | OVCAR-8 60.1 µM | PC-3 29.2 µM | RPMI-8226 28 µM | RXF 393 24.3 µM | SF-295 36.3 µM | SF-539 37.9 µM | SK-MEL-28 35.5 µM | SK-MEL-2 17.5 µM | SK-MEL-5 34.4 µM | SK-OV-3 61.9 µM | SN12C 33 µM | SNB-19 47.5 µM | SNB-75 67.3 µM | SW-620 43.7 µM | T47D 27.2 µM | TK-10 75 µM | U-251 31.3 µM | UACC-257 > 100 µM | UACC-62 18.5 µM | UO-31 27 µM
34.4 µM: HCT-15

O=C1c2ccccc2-c2nnc(-c3ccccc3)cc21
inactive: 786-0 > 10 µM | A549 > 10 µM | ACHN > 10 µM | CAKI-1 > 10 µM | CCRF-CEM 3.25 µM | COLO 205 > 10 µM | HL-60 5.05 µM | HOP-62 > 10 µM | IGROV-1 > 10 µM | K562 3.61 µM | M14 > 10 µM | MCF7 3.37 µM | MDA-MB-435 > 10 µM | MOLT-4 3.01 µM | Malme-3M > 10 µM | NCI-H23 > 10 µM | NCI-H460 > 10 µM | NCI/ADR-RES > 10 µM | OVCAR-4 > 10 µM | OVCAR-5 > 10 µM | RPMI-8226 > 10 µM | RXF 393 > 10 µM | SF-268 > 10 µM | SK-MEL-28 > 10 µM | SK-MEL-2 > 10 µM | SK-MEL-5 > 10 µM | SK-OV-3 > 10 µM | SNB-75 > 10 µM | SR 3.83 µM | SW-620 7.6 µM | T47D 4.48 µM | U-251 > 10 µM | UACC-62 > 10 µM
